From patent publication US7183276B2, “Azole compounds” (Takeda Pharmaceutical Company Limited, priority 2002, dated 2007)

Legend:
[1] = tested on: BDNF; assay: BDNF content of ischiadic nerve of STZ diabetic neuropathy model rats (sandwich ELISA); assay type: in vivo; conditions: male SD rats, STZ 70 mg/kg diabetic neuropathy model, 3 mg/kg orally in 0.5% methyl cellulose, ischiadic nerve supernatant, average value ± SD (n = 7–8)
Description: (§1) To 6-week-old male SD rats (CLEA Japan, Inc.) was injected 70 mg/kg body weight of streptozotocin (STZ) from the tail vein to form a diabetic neuropathy model.
(§2) After raising for one month, 3 mg/kg of compound (compound of Example 5 or Example 226) suspended in 0.5% methyl cellulose was orally administered to the rats. For the control group, a 0.5% aqueous methyl cellulose suspension free of the aforementioned compound was administered.
After the evaluation of the nerve conduction velocity, the ischiadic nerve was taken from the rat, a lysis buffer (0.1M Tris-HCl buffer containing 1M sodium chloride, 2% BSA, 2 mM EDTA, 80 trypsin unit/L of aprotinin, pH 7.6) in a 20-fold amount of the wet weight of ischiadic nerve was added and the mixture was subjected to ultrasonication and centrifugal separation (15,000 rpm, 60 min.), and the BDNF content of the supernatant was measured.
The BDNF content was measured by sandwich ELISA Method using anti-BDNF polyclonal antibody (Promega) and biotinated anti-BDNF antibody (G1641, Promega). The results are shown in [Table 20].

[2] = tested on: diabetic neuropathy model (streptozotocin-injected rats); assay: Motor nerve conduction velocity in STZ diabetic neuropathy model rats; assay type: in vivo; conditions: male SD rats, STZ 70 mg/kg diabetic neuropathy model; 3 mg/kg orally in 0.5% methyl cellulose; average value ± SD (n = 7–8)
Description: as §1, §2
After the completion of the administration, the rats were anesthetized with Nembutal, the body temperature was maintained at a constant level using a hot plate at 37° C. and a desk lamp, needle electrodes were placed on the above-knee region and ankle, stimulated using Neuropack 2 (NIHON KOHDEN CORPORATION) principally at 1.6 mA and the evoked potential was detected from the plantar part. The Motor Nerve Conduction Velocity (MNCV) was calculated from the distance between different electrodes and latency difference of waveforms.

Structure (SMILES)	BDNF (content of ischiadic nerve) [1] [ng/g]	MNCV (Motor Nerve Conduction Velocity) [2] [m/s]	melting point [°C]
CCOP(=O)(Cc1ccc(NC(=O)CCc2oc(-n3cnc4ccccc43)nc2-c2ccc(Cl)cc2)cc1)OCC [Example 5, 3-[2-(1H-benzimidazol-1-yl)-4-(4-chlorophenyl)-5-oxazolyl]-N-[4-(diethylphosphonomethyl)phenyl]propionamide]	2.6 ± 0.7	52.7 ± 5.0	159 to 160
CCOP(=O)(Cc1ccc(NC(=O)CCCc2oc(-n3cnc4ccccc43)nc2-c2ccc(Cl)cc2)cc1)OCC [Example 226, 4-[2-(1H-benzimidazol-1-yl)-4-(4-chlorophenyl)-5-oxazolyl]-N-[(4-diethylphosphonomethyl)phenyl]butanamide]	3.6 ± 0.4	52.3 ± 2.4	–
COc1cc(CNC(=O)CCc2oc(-n3cnc4ccccc43)nc2-c2ccc(Cl)cc2)cc(OC)c1OC [Example 169, 3-[2-(1H-benzimidazol-1-yl)-4-(4-chlorophenyl)-5-oxazolyl]-N-(3,4,5-trimethoxybenzyl)propionamide]	–	–	169 to 170
NC(=O)c1ccc(NC(=O)/C=C/c2oc(-c3ccccc3)nc2-c2ccc(Cl)cc2)cc1 [Example 68, 4-({(2E)-3-[4-(4-chlorophenyl)-2-phenyl-5-oxazolyl]propenoyl}amino)benzamide]	–	–	274 to 275
Cc1ccc(CNC(=O)CCc2sc(-n3cnc4ccccc43)nc2-c2ccc(Cl)cc2)cc1 [Example 203, 3-[2-(1H-benzimidazol-1-yl)-4-(4-chlorophenyl)-5-thiazolyl]-N-(4-methylbenzyl)propionamide]	–	–	191 to 192
CCOP(=O)(Cc1ccc(NC(=O)CCc2oc(Cl)nc2-c2ccc(Cl)cc2)cc1)OCC	–	–	137 to 138
NC(=O)CCc1oc(-n2cnc3ccccc32)nc1-c1ccc(Cl)cc1 [Example 8, 3-[2-(1H-benzimidazol-1-yl)-4-(4-chlorophenyl)-5-oxazolyl]propionamide]	–	–	265 to 266
NC(=O)CCCc1oc(-c2ccccc2)nc1-c1ccc(Cl)cc1 [Example 52, 4-[4-(4-chlorophenyl)-2-phenyl-5-oxazolyl]butanamide]	–	–	168 to 169
CSc1ccc(NC(=O)CCc2oc(-n3cnc4ccccc43)nc2-c2ccc(Cl)cc2)cc1 [Example 96, 3-[2-(1H-benzimidazol-1-yl)-4-(4-chlorophenyl)-5-oxazolyl]-N-{4-(methylsulfanyl)phenyl}propionamide]	–	–	276 to 277
O=C(CCc1oc(-n2cnc3ccccc32)nc1-c1ccc(Cl)cc1)Nc1ccc(OC(F)(F)F)cc1 [Example 122, 3-[2-(1H-benzimidazol-1-yl)-4-(4-chlorophenyl)-5-oxazolyl]-N-[4-(trifluoromethoxy)phenyl]propionamide]	–	–	174 to 175
